Source: patent publication US20240010684A1, “MASP INHIBITORY COMPOUNDS AND USES THEREOF” (BAYER AKTIENGESELLSCHAFT, priority 2020, published 2024)
*1 amine or outer side, *2 acyl side, *3 side chain or, on linkers, in order; H or OH if unused. Where a SMILES comes first, the peptide text is derived from it. Bridges are numbered along the chain shown (N, C = ends). [ ]: non-standard residue; d: D form. Oic = O=C(O)[C@@H]1C[C@@H]2CCCC[C@@H]2N1; X5 = NCCC[C@H](N[*:1])C(=O)NC(=O)[*:2]; Arg(Me) = CNC(=N)NCCC[C@H](N)C(=O)O; tBuAla = CC(C)(C)C[C@H](N)C(=O)O; Pen = CC(C)(S)[C@H](N)C(=O)O; Dab = NCC[C@H](N)C(=O)O; Abu = CC[C@H](N)C(=O)O; Dap = NC[C@H](N)C(=O)O; PEG2 = NCCOCCOCCC(=O)O; Ahx = NCCCCCC(=O)O

Legend:
human MASP1 = human MASP1 (Homo sapiens (Human), UniProt P48740); experiment: Biochemical human MASP1 assay (FRET substrate); conditions: Average IC50; recombinant human MASP1; read-out: human MASP1 IC50
Sequence of human MASP1 (P48740 other isoform, or with tags, fused parts or gaps): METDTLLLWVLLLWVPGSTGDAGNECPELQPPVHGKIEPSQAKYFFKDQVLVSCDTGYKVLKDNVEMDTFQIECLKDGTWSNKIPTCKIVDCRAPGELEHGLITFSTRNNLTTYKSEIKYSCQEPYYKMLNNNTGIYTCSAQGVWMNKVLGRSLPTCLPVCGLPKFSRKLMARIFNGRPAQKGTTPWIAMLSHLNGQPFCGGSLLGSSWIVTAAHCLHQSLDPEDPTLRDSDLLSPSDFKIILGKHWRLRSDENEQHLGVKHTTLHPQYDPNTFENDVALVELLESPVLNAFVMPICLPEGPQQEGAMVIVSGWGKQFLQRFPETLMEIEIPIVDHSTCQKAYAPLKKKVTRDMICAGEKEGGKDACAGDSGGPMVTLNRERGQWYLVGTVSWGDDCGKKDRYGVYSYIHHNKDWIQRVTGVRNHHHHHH
Summary of the method: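 Recombinant human MASP1 (aa 297-699, C-terminal His tag, HEK293-expressed, Ni-NTA purified) diluted to 20 nM in 50 mM HEPES pH 8,0, 100 mM NaCl, 0,01% CHAPS, 0.5 mM glutathione, preincubated with compound in DMSO; reaction started with 20 μM ABZ/Dnp FRET substrate solution. Fluorescence (ex 320/em 420 nm) after 60-120 min at 32 C; IC50 from % inhibition.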

[1] = test system: Human C3-DEPOSITION SERUM; experiment: C3 deposition assay, human serum on mannan-coated plates; format: biochemical; conditions: Average IC50, read-out: Human C3-DEPOSITION SERUM IC50
Procedure: 3. C3 Deposition Assay (Human, Rat, Mouse, Dog, Pig))
The C3 deposition assay was conducted essentially as described (reference). Multiwell plates (Greiner-Nunc 384 Maxi Sorp #464718) were coated over night with Mannan from Saccharomyces cerevisiae (Sigma M7504, 10 μg/mL in 0.05 M carbonate-bicarbonate buffer, pH 9.6) at 4° C. Wells were washed three times with TBS and subsequently incubated for 2 hours with 50 μL of 1% bovine serum albumin (BSA) in Tris-buffered saline (TBS) at 37° C. in order to block non-specific binding. After this step and each of the following incubation steps wells were washed three times with C3 wash buffer (TBS; 0.05% Tween 20; 5 mM CaCl2). […] When appropriately developed the color reaction was stopped by addition of 25 μL of stop solution (Sigma S5814) and quantified on a photometer by measuring absorption at a wavelength of 450 nm. Antibodies were diluted in C3 wash buffer supplemented with 0.5% BSA.

human MASP2 = human MASP2 (Homo sapiens (Human), UniProt O00187); experiment: Biochemical human MASP2 assay (FRET substrate); conditions: Average IC50; recombinant human MASP2; read-out: human MASP2 IC50
Sequence of human MASP2 (O00187 other isoform, or with tags, fused parts or gaps): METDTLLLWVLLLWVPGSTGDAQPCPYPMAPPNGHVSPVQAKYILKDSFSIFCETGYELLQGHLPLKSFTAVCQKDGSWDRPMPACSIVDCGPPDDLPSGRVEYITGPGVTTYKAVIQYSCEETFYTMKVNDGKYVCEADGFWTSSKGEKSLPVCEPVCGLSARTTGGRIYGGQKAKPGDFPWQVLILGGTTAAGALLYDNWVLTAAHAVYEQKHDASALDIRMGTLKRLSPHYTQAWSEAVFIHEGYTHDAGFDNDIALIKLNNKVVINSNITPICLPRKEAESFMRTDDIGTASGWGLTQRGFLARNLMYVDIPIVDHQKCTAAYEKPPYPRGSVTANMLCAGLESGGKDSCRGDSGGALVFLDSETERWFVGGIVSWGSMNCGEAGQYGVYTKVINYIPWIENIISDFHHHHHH
Summary of the method: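 Mature recombinant human MASP2, expressed in HEK293 and purified by Ni-NTA affinity, was reacted with a DABCYL FRET peptide substrate (added as a 60 μM solution) for 60-120 min at 32 C. Fluorescence increase was read at ex 340/em 490 nm; IC50 was derived from % inhibition versus compound concentration.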

| IC50 (human MASP1) [nM] | IC50 [1] [nM] | IC50 (human MASP2) [nM] | SMILES |
| --- | --- | --- | --- |
| 6.3 | 28.2 | 17 | CC[C@H](C)[C@@H]1NC(=O)CCCCCNC(=O)[C@@H]2CCCN2C(=O)[C@H]([C@@H](C)CC)NC(=O)[C@H]2NC(=O)[C@H]([C@@H](C)CC)NC(=O)[C@@H]3CCCN3C(=O)[C@@H]3CCCN3C(=O)[C@H](CC(C)(C)C)NC(=O)[C@H](CO)NC(=O)[C@H](CCCNC(=N)N)NC(=O)[C@H](CO)NC(=O)[C@H](CSSC2(C)C)NC1=O [Example 51] (cyclo([Ahx]ICSRS[tBuAla]PPI[Pen]IP); disulfide 3-11) |
| 23 | 103 | 400 | CC[C@H](C)[C@@H]1NC(=O)NC(=O)[C@H](CCCN)NC(=O)[C@@H]2CCCN2C(=O)[C@H]([C@@H](C)CC)NC(=O)[C@H]2NC(=O)[C@H]([C@@H](C)CC)NC(=O)[C@@H]3CCCN3C(=O)[C@@H]3CCCN3C(=O)[C@H](CC(C)(C)C)NC(=O)[C@H](CO)NC(=O)[C@H](CCCNC(=N)NC)NC(=O)[C@H](CO)NC(=O)[C@H](CSSC2(C)C)NC1=O [Example 96] (cyclo([Arg(Me)]S[tBuAla]PPI[Pen]IP[X5]ICS); disulfide 7-12) |
| 180 | 121 | 20 | CC[C@H](C)[C@@H]1NC(=O)CNC(=O)[C@H](CN)NC(=O)[C@H](CN)NC(=O)[C@H](CC(=O)O)NC(=O)[C@@H]2CCCN2C(=O)[C@H]([C@@H](C)CC)NC(=O)[C@@H]2CSSC[C@H](NC1=O)C(=O)N[C@@H](CO)C(=O)N[C@@H](CCCNC(=N)N)C(=O)N[C@@H](CO)C(=O)N[C@@H](CC(C)C)C(=O)N1CCC[C@H]1C(=O)N1CCC[C@H]1C(=O)N[C@@H]([C@@H](C)CC)C(=O)N2 [Example 23] (cyclo(CIPD[Dap][Dap]GICSRSLPPI); disulfide 1-9) |
| 1000 | 3130 | 1000 | CC[C@H](C)[C@@H]1NC(=O)[C@@H](N)CNC(=O)[C@@H]2CCCN2C(=O)[C@H]([C@@H](C)CC)NC(=O)[C@H]2NC(=O)[C@H]([C@@H](C)CC)NC(=O)[C@@H]3C[C@@H]4CCCC[C@@H]4N3C(=O)[C@@H]3CCCN3C(=O)[C@H](CC(C)C)NC(=O)[C@H](CO)NC(=O)[C@H](CCCNC(=N)N)NC(=O)[C@H](CO)NC(=O)[C@H](CSSC2(C)C)NC1=O [Example 85] (H-[Dap]ICSRSLP[Oic]I[Pen]IP; lactam 1-C; disulfide 3-11) |
| 86 | 566 | 1100 | CC[C@H](C)[C@@H]1NC(=O)[C@H](CCN)NC(=O)[C@@H]2CCCN2C(=O)[C@H]([C@@H](C)CC)NC(=O)[C@H]2NC(=O)[C@H]([C@@H](C)CC)NC(=O)[C@@H]3CCCN3C(=O)[C@@H]3CCCN3C(=O)[C@H](CC(C)(C)C)NC(=O)[C@H](CO)NC(=O)[C@H](CCCNC(=N)N)NC(=O)[C@H](CO)NC(=O)[C@H](CSSC2(C)C)NC1=O [Example 56, N-{3-[(6S,9S,12S,15S,18R,21S,24S,26aS,32S,35R,38S,40aS,45aS)-24-(2-aminoethyl)-21,32,38-tri[(2S)-butan-2-yl]-6-(2,2-dimethylpropyl)-9,15-bis(hydroxymethyl)-46,46-dimethyl-5,8,11,14,17,20,23,26,31,34,37,40,45-tridecaoxotetratetracontahydro-1H-18,35-(methanodithiomethano)tripyrrolo[1,2-a:1′,2′-d:1″,2″-p]-[1,4,7,10,13,16,19,22,25,28,31,34,37]tridecaazacyclononatriacontin-12-yl]propyl}guanidine] (cyclo(CSRS[tBuAla]PPI[Pen]IP[Dab]I); disulfide 1-9) |
| 46 | 236 | 340 | CC[C@H](C)[C@@H]1NC(=O)[C@H](CN)NC(=O)[C@H](CN)NC(=O)[C@H]([C@@H](C)CC)NC(=O)[C@H]2NC(=O)[C@H]([C@@H](C)CC)NC(=O)[C@@H]3CCCN3C(=O)[C@@H]3CCCN3C(=O)[C@H](CC(C)(C)C)NC(=O)[C@H](CO)NC(=O)[C@H](CCCNC(=N)N)NC(=O)[C@H](CO)NC(=O)[C@H](CSSC2(C)C)NC1=O [Example 57, N-{3-[(5aS,11S,14S,17S,20S,23R,26S,29S,32S,35S,38R,41S,43aS)-29,32-bis(aminomethyl)-26,35,41-tri[(2S)-butan-2-yl]-11-(2,2-dimethylpropyl)-14,20-bis(hydroxymethyl)-44,44-dimethyl-5,10,13,16,19,22,25,28,31,34,37,40,43-tridecaoxodotetracontahydro-5H-23,38-(methanodithiomethano)dipyrrolo[1,2-a:1′,2′-d]-[1,4,7,10,13,16,19,22,25,28,31,34,37]tridecaazacyclononatriacontin-17-yl]propyl}guanidine] (cyclo(CSRS[tBuAla]PPI[Pen]I[Dap][Dap]I); disulfide 1-9) |
| 20 | – | 44 | CC[C@@H]1NC(=O)CCCCCNC(=O)[C@H](CC(=O)O)NC(=O)[C@@H]2CCCN2C(=O)[C@H]([C@@H](C)CC)NC(=O)[C@H]2NC(=O)[C@H]([C@@H](C)CC)NC(=O)[C@@H]3CCCN3C(=O)[C@@H]3CCCN3C(=O)[C@H](CC(C)(C)C)NC(=O)[C@H](CO)NC(=O)[C@H](CCCNC(=N)N)NC(=O)[C@H](CO)NC(=O)[C@H](CSSC2(C)C)NC(=O)[C@H]([C@@H](C)CC)NC1=O [Example 38] (cyclo([Abu]ICSRS[tBuAla]PPI[Pen]IPD[Ahx]); disulfide 3-11) |
| 22 | – | 45 | CC[C@H](C)[C@@H]1NC(=O)[C@@H](C)NC(=O)CCCCCNC(=O)CC[C@@H](C(N)=O)NC(=O)[C@@H]2CCCN2C(=O)[C@H]([C@@H](C)CC)NC(=O)[C@H]2NC(=O)[C@H]([C@@H](C)CC)NC(=O)[C@@H]3C[C@@H]4CCCC[C@@H]4N3C(=O)[C@@H]3CCCN3C(=O)[C@H](CC(C)C)NC(=O)[C@H](CO)NC(=O)[C@H](CCCNC(=N)N)NC(=O)[C@H](CO)NC(=O)[C@H](CSSC2(C)C)NC1=O [Example 79] ([Ahx][dA]ICSRSLP[Oic]I[Pen]IPE-NH2; disulfide 4-12; lactam N-15) |
| 26 | – | 88 | CC[C@H](C)[C@@H]1NC(=O)CNC(=O)CNC(=O)[C@H](C)NC(=O)[C@@H](CC(=O)O)NC(=O)[C@@H]2CCCN2C(=O)[C@H]([C@@H](C)CC)NC(=O)[C@@H]2CSSC[C@H](NC1=O)C(=O)N[C@@H](CO)C(=O)N[C@@H](CCCNC(=N)N)C(=O)N[C@@H](CO)C(=O)N[C@@H](CC(C)C)C(=O)N1CCC[C@H]1C(=O)N1CCC[C@H]1C(=O)N[C@@H]([C@@H](C)CC)C(=O)N2 [Example 17] (cyclo(AGGICSRSLPPICIP[dD]); disulfide 5-13) |
| 11 | – | 98 | CC[C@H](C)[C@@H]1NC(=O)[C@H](C)NC(=O)CCOCCOCCNC(=O)[C@H](CC(=O)O)NC(=O)[C@@H]2CCCN2C(=O)[C@H]([C@@H](C)CC)NC(=O)[C@H]2NC(=O)[C@H]([C@@H](C)CC)NC(=O)[C@@H]3CCCN3C(=O)[C@@H]3CCCN3C(=O)[C@H](CC(C)(C)C)NC(=O)[C@H](CO)NC(=O)[C@H](CCCNC(=N)N)NC(=O)[C@H](CO)NC(=O)[C@H](CSSC2(C)C)NC1=O [Example 34] (cyclo(AICSRS[tBuAla]PPI[Pen]IPD[PEG2]); disulfide 3-11) |
| 50 | – | 15 | CC[C@H](C)[C@@H]1NC(=O)CNC(=O)CNC(=O)[C@H](C)NC(=O)[C@H](CC(=O)O)NC(=O)[C@@H]2CCCN2C(=O)[C@H]([C@@H](C)CC)NC(=O)[C@@H]2CSSC[C@H](NC1=O)C(=O)N[C@@H](CO)C(=O)N[C@@H](CCCNC(=N)N)C(=O)N[C@@H](CO)C(=O)N[C@@H](CC(C)C)C(=O)N1CCC[C@H]1C(=O)N1CCC[C@H]1C(=O)N[C@@H]([C@@H](C)CC)C(=O)N2 [Example 18] (cyclo(AGGICSRSLPPICIPD); disulfide 5-13) |

| SMILES | IC50 (human MASP1) [nM] | IC50 [1] [nM] | IC50 (human MASP2) [nM] |
| --- | --- | --- | --- |
| CC[C@H](C)[C@@H]1NC(=O)[C@@H]2CCCN2C(=O)[C@H]([C@@H](C)CC)NC(=O)[C@H]2NC(=O)[C@H]([C@@H](C)CC)NC(=O)[C@@H]3CCCN3C(=O)[C@@H]3CCCN3C(=O)[C@H](CC(C)(C)C)NC(=O)[C@H](CO)NC(=O)[C@H](CCCNC(=N)N)NC(=O)[C@H](CO)NC(=O)[C@H](CSSC2(C)C)NC1=O [Example 88, N-{3-[(6S,9S,12S,15S,18R,21S,23aS,29S,32R,35S,37aS,42aS)-21,29,35-tri[(2S)-butan-2-yl]-6-(2,2-dimethylpropyl)-9,15-bis(hydroxymethyl)-43,43-dimethyl-5,8,11,14,17,20,23,28,31,34,37,42-dodecaoxotetracontahydro-1H,5H-18,32-(methanodithiomethano)tripyrrolo[1,2-a:1′,2′-d:1″,2″-p][1,4,7,10,13,16,19,22,25,28,31,34]-dodecaazacyclohexatriacontin-12-yl]propyl}guanidine hydrogen chloride] (cyclo(CSRS[tBuAla]PPI[Pen]IPI); disulfide 1-9) | 1000 | 50000 | 1000 |
